Source: PMC4552381, “Unraveling Comparative Anti-Amyloidogenic Behavior of Pyrazinamide and D-Cycloserine: A Mechanistic Biophysical Insight” (PLoS ONE, 2015)

How the values were obtained:
[1] = target: T1, Hen egg white lysozyme (HEWL) (Gallus gallus, UniProt P00698); experiment: intrinsic Trp fluorescence quenching, modified Stern-Volmer; format: binding; details: pH 7.4, 20 mM sodium phosphate, 25°C, 5 μM HEWL, excitation 295 nm, double-log
T1 construct: gene LYZ; native egg-white protein, commercial (Sigma), dialysed; mature chain, 129 residues, monomer, four disulfides
T1 sequence (P00698 19-147): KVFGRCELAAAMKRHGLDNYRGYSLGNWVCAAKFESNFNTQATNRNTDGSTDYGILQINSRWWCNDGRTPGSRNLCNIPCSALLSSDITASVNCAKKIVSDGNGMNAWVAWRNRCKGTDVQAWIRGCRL
Excerpt: intrinsic Trp fluorescence quenching, modified Stern-Volmer on Hen egg white lysozyme (HEWL)

[2] = target: T1, Hen egg white lysozyme (HEWL); experiment: heat-induced aggregation, turbidity at […] nm, single exponential fit; format: biochemical; details: pH 7.4, 65°C, 120 h, 10 μM HEWL, stirring; inhibition of aggregation

Row | binding constant ([1]; n = 1.1, unreliable (text b59 prints another value)) | Λ [2] [M⁻¹] | binding constant ([1]; n = 1.2) | SMILES
1 | (2.70±0.18)×10^3 M^-1 | 470 |  | N[C@@H]1CONC1=O [D-cycloserine, D-4-amino-3-isoxazolidone]
2 |  | 1500 | (2.45±0.19)×10^4 M^-1 | NC(=O)c1cnccn1 [pyrazinamide]
